Laboratory results published in US8758767B2, “Antigens targeted by prevalent pathogennic T cells in type 1 diabetes and uses thereof” (Albert Einstein College of Medicine of Yeshiva University, priority 2003, dated 2014).

How the values were obtained:
H-2Db = molecular target: T1, H-2Db (Mus musculus, UniProt P01899); assay: Presentation of IGRP peptide by MHC class I molecule
T1 sequence (P01899 25-362): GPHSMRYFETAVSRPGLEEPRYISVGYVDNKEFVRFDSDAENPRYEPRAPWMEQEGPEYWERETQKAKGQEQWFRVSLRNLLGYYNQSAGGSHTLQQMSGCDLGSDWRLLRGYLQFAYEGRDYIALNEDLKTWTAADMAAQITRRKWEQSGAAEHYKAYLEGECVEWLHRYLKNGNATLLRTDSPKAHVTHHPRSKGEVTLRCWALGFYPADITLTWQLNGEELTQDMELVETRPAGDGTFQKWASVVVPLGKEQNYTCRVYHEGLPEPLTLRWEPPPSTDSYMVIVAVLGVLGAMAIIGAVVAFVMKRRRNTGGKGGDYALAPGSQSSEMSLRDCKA
T1 sequence (P01887 21-119 partner): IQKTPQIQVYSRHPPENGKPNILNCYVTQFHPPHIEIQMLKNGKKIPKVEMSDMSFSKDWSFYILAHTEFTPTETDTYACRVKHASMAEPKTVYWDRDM

[1] = tested on: T-cells from the islets of 12-week-old female NOD mice; assay: Interferon-γ ELISpot of T-cells cultured from NOD islets (Example 4); format: cell-based, mouse
Description: Using procedures described in Example 1, we have cultured T-cells from the islets of 12-week-old female NOD mice. T-cells were assayed for recognition of several different IGRP peptides by interferon-γ ELISpot.

AI12.B1.3 TCR = assay: TCR transfectant peptide recognition, IL-2 release (58 α−β− cells, RMA-S/K^d presenters); format: cell-based, mouse; details: FIG. 2
From the text: (§1) T cell receptors from the previously isolated NOD-derived β cell-autoreactive class I MHC-restricted T cell clones AI4, AI12.B1.1, AI12.B1.2, AI12.B1.3, AI15.A10, AI15.F5 (DiLorenzo et al., 1998), and 8.3 (Verdaguer et al., 1997) were expressed in the TCR^− T cell hybridoma 58α^−β^− (engineered to express the TCR ζ chain and CD8αβ and provided by H.-C. Chang, Dana Farber, Boston, Mass., USA) as described (Serreze et al., 2001). TCR expression was verified by flow cytometric analysis of growing clones using an antibody to CD3ε (145-2C11). RMA-S/K^d cells incubated overnight at 28° C. were used to present exogenously added synthetic peptides at concentrations as indicated in the figures. Peptide recognition by the TCR transfectants was measured by IL-2 production as previously described (Serreze et al., 2001).

AI15.F5 TCR = assay: as above; format: cell-based, mouse; details: FIG. 2
From the text: as §1

8.3-CD8+ T-cells = assay: Proliferation and cytokine secretion of naive splenic 8.3-CD8+ T-cells with peptide-pulsed NOD splenocytes; format: cell-based, mouse; details: FIG. 5, peptide 0.01-1 μM
Description: Naïve or NRP-A7-differentiated (see below) splenic CD8+ T-cells from 8.3-NOD mice (2×10^4/well) were incubated, in duplicate, with peptide-pulsed (0.01, 0.1 and 1 μM), γ-irradiated (3,000 rad) NOD splenocytes (10^5/well) for 3 days at 37° C. in 5% CO2. Cultures were pulsed with 1 μCi of (^3H)-thymidine during the last 18 hours of culture and harvested.
Naïve splenic CD8+ T-cells from 8.3-NOD mice (2×10^4/well) were incubated with peptide-pulsed (0.001, 0.01, 0.1, 1 and/or 10 μM) γ-irradiated NOD splenocytes (10^5/well) in 96-well plates for 48 hours at 37° C. Short-term islet-derived T-cell lines from peptide-treated or unmanipulated NOD mice (adjusted at 2×10^4 CD8+ T-cells/well) were tested the same way, but using 10 μM of peptide. The supernatants (100 μl/well) were assayed in duplicate for IL-2, IL-4, and/or IFN-γ content by ELISA using commercially available kits (Genzyme Diagnostics, Cambridge, Mass.).

[2] = tested on: 8.3-CD8+ splenocytes of 8.3-NOD mice; assay: Tolerogenic activity of APLs in 8.3-NOD mice; format: in vivo, mouse; details: single injection 100 μg in PBS, analysis 7 days later
Description: (§2) Cohorts of 3-to-4 week-old female NOD mice were injected with 1-100 μg of peptide in PBS intraperitoneally. This was repeated every 2 weeks until the 7-8th week, and every 3 weeks thereafter. Mice were monitored for development of hyperglycemia until at least the 28th week of age. The 8.3-CD8+ T-cell tolerogenic activity of APLs was determined by treating 8-15 wk-old 8.3-NOD mice with one i.p. injection of 100 μg of peptide. […] Mice were sacrificed a week after treatment, and their spleens analyzed for presence of 8.3-CD8+ T-cells by flow cytometry.

female NOD mice = assay: Repeated peptide treatment of female NOD mice, diabetes development and islet-associated CD8+ T-cells; format: in vivo, mouse
Description: as §2
We next investigated whether the anti-diabetogenic activity of the above APLs was a function of “avidity”, as defined not only by the affinity of individual peptide/MHC complexes for specific TCRs, but also by the absolute number of peptide/MHC complexes that are available for recognition (i.e. dose of peptide). This was done by treating cohorts of female NOD mice with repeated injections of TUM (negative control), NRP-I4, NRP-A7 and NRP-V7 (in PBS) over a wide dose range, and by following the mice for development of diabetes (FIG. 7A, top). Starting at 3-4 weeks of age, mice received one injection of peptide i.p. every 2 (first three doses) or 3 weeks after initiation of treatment. Mice were sacrificed at diabetes onset or at the end of the follow-up period (28-32 weeks), to investigate the effects of treatment on the size and tetramer-binding avidity of the islet-associated IGRP206-214-reactive CD8+ T-cell subpopulation (FIG. 7A, bottom).

CALTSLTTM [IGRP296-304]
presentation by MHC class I molecule (H-2Db): is presented by the MHC class I molecule H-2Db

FLWSVFWLI [IGRP152-160]
T-cell reactivity by interferon-γ ELISpot [1]: Reactivity was found

KYNKANVFL [NRP-V7, reference compound]
recognition by AI12.B1.3 (IL-2 release) (AI12.B1.3 TCR): recognized | recognition by AI15.F5 (IL-2 release) (AI15.F5 TCR): responded | agonistic activity on 8.3-CD8+ T-cells (8.3-CD8+ T-cells): superior agonistic activity | 8.3-CD8+ splenocytes after treatment [2]: fewer 8.3-CD8+ splenocytes | anti-diabetogenic activity (female NOD mice; any dose): not significantly protective | protection from diabetes by chronic treatment (discussion summary) (female NOD mice; intermediate doses NRP-A7, high doses NRP-I4, low or high doses NRP-V7, high doses IGRP206-214): only afforded marginal protection from disease | NRP-V7-reactive CD8+ cells in the islets (female NOD mice; over a range of doses): almost completely devoid
